Test results reported in the NIST ThermoML archive (doi:10.1021/je900124n).
Where “and” joins values, the source holds several entries; their conditions need not be identical. Equal values may be shown once. Numbers after ± are expanded uncertainties.

Details: Fluid (supercritical or subcritical phases), Buoyancy - hydrostatic balance with magnetic suspension - two sinkers

CCC [propane]
mass density (400 K, 11790 kPa): 357.33 ± 0.046 kg/m3 | mass density (400 K, 11791 kPa): 357.335 ± 0.046 kg/m3 [middle of 4 runs] | mass density (400 K, 15926 kPa): 390.231 ± 0.049 kg/m3 [middle of 6 runs] | mass density (400 K, 15927 kPa): 390.233 ± 0.049 kg/m3 | mass density (400 K, 17448 kPa): 398.971 ± 0.05 kg/m3 | mass density (400 K, 17449 kPa): 398.975 ± 0.05 kg/m3 | mass density (400 K, 17450 kPa): 398.984 ± 0.05 kg/m3 and 398.981 ± 0.05 kg/m3 and 398.978 ± 0.05 kg/m3 | mass density (400 K, 29918 kPa): 445.478 ± 0.055 kg/m3 | mass density (400 K, 29922 kPa): 445.491 ± 0.055 kg/m3 | mass density (400 K, 29927 kPa): 445.504 ± 0.055 kg/m3 | mass density (400 K, 29932 kPa): 445.516 ± 0.055 kg/m3 | mass density (400 K, 29938 kPa): 445.533 ± 0.055 kg/m3 | mass density (400 K, 35836 kPa): 460.067 ± 0.057 kg/m3 | mass density (400 K, 35844 kPa): 460.086 ± 0.057 kg/m3 | mass density (400 K, 35852 kPa): 460.105 ± 0.057 kg/m3 | mass density (400 K, 35860 kPa): 460.123 ± 0.057 kg/m3 | mass density (400 K, 35868 kPa): 460.142 ± 0.057 kg/m3 | mass density (400.01 K, 3901.8 kPa): 73.2154 ± 0.043 kg/m3 | mass density (400.01 K, 3902 kPa): 73.2198 ± 0.043 kg/m3 | mass density (400.01 K, 10112 kPa): 336.233 ± 0.048 kg/m3 and 336.235 ± 0.048 kg/m3 and 336.236 ± 0.048 kg/m3 | mass density (420 K, 352.46 kPa): 4.5346 ± 0.0029 kg/m3 and 4.5345 ± 0.0029 kg/m3 and 4.5347 ± 0.0029 kg/m3 | mass density (420 K, 352.47 kPa): 4.5348 ± 0.0029 kg/m3 | mass density (420 K, 629.66 kPa): 8.229 ± 0.0033 kg/m3 | mass density (420 K, 629.67 kPa): 8.2291 ± 0.0033 kg/m3 | mass density (420 K, 990.94 kPa): 13.2257 ± 0.0039 kg/m3 | mass density (420 K, 991.11 kPa): 13.2302 ± 0.0039 kg/m3 | mass density (420 K, 992.11 kPa): 13.2437 ± 0.0039 kg/m3 | mass density (420 K, 993.37 kPa): 13.2618 ± 0.0039 kg/m3 | mass density (420 K, 994.27 kPa): 13.2745 ± 0.0039 kg/m3 | mass density (420 K, 1638.8 kPa): 22.7735 ± 0.022 kg/m3 and 22.7726 ± 0.022 kg/m3 | mass density (420 K, 1639 kPa): 22.7748 ± 0.022 kg/m3 | mass density (420 K, 1639.4 kPa): 22.7815 ± 0.022 kg/m3 and 22.7817 ± 0.022 kg/m3 | mass density (420 K, 2549.6 kPa): 37.6977 ± 0.026 kg/m3 | mass density (420 K, 2549.8 kPa): 37.6995 ± 0.026 kg/m3 and 37.7007 ± 0.026 kg/m3 and 37.7006 ± 0.026 kg/m3 | mass density (420 K, 3591.6 kPa): 57.6483 ± 0.029 kg/m3 | mass density (420 K, 3591.8 kPa): 57.649 ± 0.029 kg/m3 | mass density (420 K, 3592 kPa): 57.6554 ± 0.029 kg/m3 and 57.6545 ± 0.029 kg/m3 | mass density (420 K, 3592.3 kPa): 57.6606 ± 0.029 kg/m3 | mass density (420 K, 4243.9 kPa): 72.25 ± 0.037 kg/m3 | mass density (420 K, 4244 kPa): 72.2514 ± 0.037 kg/m3 | mass density (420 K, 5253.6 kPa): 99.376 ± 0.016 kg/m3 and 99.3762 ± 0.016 kg/m3 | mass density (420 K, 5253.7 kPa): 99.3774 ± 0.016 kg/m3 and 99.3766 ± 0.016 kg/m3 and 99.3783 ± 0.016 kg/m3 | mass density (420 K, 6605.8 kPa): 147.752 ± 0.054 kg/m3 | mass density (420 K, 6605.9 kPa): 147.756 ± 0.054 kg/m3 and 147.757 ± 0.054 kg/m3 | mass density (420 K, 6606 kPa): 147.761 ± 0.054 kg/m3 and 147.757 ± 0.054 kg/m3 | mass density (420 K, 6612.9 kPa): 148.072 ± 0.023 kg/m3 | mass density (420 K, 6613 kPa): 148.069 ± 0.023 kg/m3 | mass density (420 K, 6613.1 kPa): 148.07 ± 0.023 kg/m3 and 148.073 ± 0.023 kg/m3 | mass density (420 K, 6613.2 kPa): 148.071 ± 0.023 kg/m3 | mass density (420 K, 6780.5 kPa): 155.128 ± 0.054 kg/m3 and 155.129 ± 0.054 kg/m3 | mass density (420 K, 6780.6 kPa): 155.129 ± 0.054 kg/m3 and 155.128 ± 0.054 kg/m3 | mass density (420 K, 7709.3 kPa): 196.595 ± 0.063 kg/m3 | mass density (420 K, 7709.5 kPa): 196.603 ± 0.063 kg/m3 | mass density (420 K, 7709.6 kPa): 196.603 ± 0.063 kg/m3 | mass density (420 K, 7709.7 kPa): 196.608 ± 0.063 kg/m3 and 196.605 ± 0.063 kg/m3 and 196.607 ± 0.063 kg/m3 | mass density (420 K, 7709.8 kPa): 196.607 ± 0.063 kg/m3 | mass density (420 K, 7709.9 kPa): 196.61 ± 0.063 kg/m3 | mass density (420 K, 8228.3 kPa): 219.041 ± 0.046 kg/m3 | mass density (420 K, 8228.4 kPa): 219.041 ± 0.046 kg/m3 and 219.043 ± 0.046 kg/m3 | mass density (420 K, 8228.5 kPa): 219.044 ± 0.046 kg/m3 and 219.042 ± 0.046 kg/m3 and 219.043 ± 0.046 kg/m3 | mass density (420 K, 8228.6 kPa): 219.042 ± 0.046 kg/m3 and 219.043 ± 0.046 kg/m3 | mass density (420 K, 8848 kPa): 242.768 ± 0.043 kg/m3 and 242.766 ± 0.043 kg/m3 and 242.77 ± 0.043 kg/m3 | mass density (420 K, 8848.1 kPa): 242.767 ± 0.043 kg/m3 | mass density (420 K, 8848.2 kPa): 242.772 ± 0.043 kg/m3 and 242.768 ± 0.043 kg/m3 | mass density (420 K, 10126 kPa): 279.933 ± 0.043 kg/m3 and 279.935 ± 0.043 kg/m3 | mass density (420 K, 10127 kPa): 279.933 ± 0.043 kg/m3 and 279.936 ± 0.043 kg/m3 and 279.935 ± 0.043 kg/m3 | mass density (420 K, 13593 kPa): 335.538 ± 0.044 kg/m3 [middle of 4 runs] | mass density (420 K, 20930 kPa): 389.39 ± 0.05 kg/m3 | mass density (420 K, 20931 kPa): 389.391 ± 0.05 kg/m3 and 389.393 ± 0.05 kg/m3 | mass density (420.01 K, 629.66 kPa): 8.2291 ± 0.0033 kg/m3 | mass density (420.01 K, 629.67 kPa): 8.229 ± 0.0033 kg/m3 | mass density (420.01 K, 4243.9 kPa): 72.2481 ± 0.037 kg/m3 and 72.2491 ± 0.037 kg/m3 and 72.2487 ± 0.037 kg/m3 | mass density (420.01 K, 4244 kPa): 72.2505 ± 0.037 kg/m3 and 72.2532 ± 0.037 kg/m3 and 72.2519 ± 0.037 kg/m3 | mass density (420.01 K, 6606 kPa): 147.759 ± 0.054 kg/m3 | mass density (420.01 K, 6606.4 kPa): 147.771 ± 0.054 kg/m3 | mass density (420.01 K, 13593 kPa): 335.538 ± 0.044 kg/m3 and 335.537 ± 0.044 kg/m3 | mass density (420.01 K, 20931 kPa): 389.392 ± 0.05 kg/m3 and 389.394 ± 0.05 kg/m3 | mass density (420.01 K, 20932 kPa): 389.393 ± 0.05 kg/m3 | mass density (440 K, 368.32 kPa): 4.5138 ± 0.0029 kg/m3 and 4.514 ± 0.0029 kg/m3 and 4.5139 ± 0.0029 kg/m3 | mass density (440 K, 658.93 kPa): 8.1892 ± 0.0033 kg/m3 | mass density (440 K, 658.95 kPa): 8.1897 ± 0.0033 kg/m3 | mass density (440 K, 1032.5 kPa): 13.0703 ± 0.0039 kg/m3 and 13.0712 ± 0.0039 kg/m3 | mass density (440 K, 1032.8 kPa): 13.0744 ± 0.0039 kg/m3 | mass density (440 K, 1733.1 kPa): 22.7483 ± 0.021 kg/m3 | mass density (440 K, 1733.2 kPa): 22.75 ± 0.021 kg/m3 and 22.7499 ± 0.021 kg/m3 and 22.7504 ± 0.021 kg/m3 | mass density (440 K, 1733.4 kPa): 22.752 ± 0.021 kg/m3 | mass density (440 K, 2721.5 kPa): 37.7309 ± 0.024 kg/m3 | mass density (440 K, 2721.7 kPa): 37.7344 ± 0.024 kg/m3 | mass density (440 K, 2721.8 kPa): 37.7372 ± 0.024 kg/m3 | mass density (440 K, 2721.9 kPa): 37.7372 ± 0.024 kg/m3 | mass density (440 K, 2722.1 kPa): 37.7402 ± 0.024 kg/m3 | mass density (440 K, 3865 kPa): 57.5204 ± 0.027 kg/m3 | mass density (440 K, 3865.3 kPa): 57.5255 ± 0.027 kg/m3 | mass density (440 K, 3865.4 kPa): 57.5267 ± 0.027 kg/m3 | mass density (440 K, 3865.5 kPa): 57.5266 ± 0.027 kg/m3 | mass density (440 K, 3865.7 kPa): 57.532 ± 0.027 kg/m3 | mass density (440 K, 4613.1 kPa): 72.2413 ± 0.012 kg/m3 [middle of 4 runs] | mass density (440 K, 5803.9 kPa): 99.3306 ± 0.016 kg/m3 and 99.3318 ± 0.016 kg/m3 | mass density (440 K, 5804 kPa): 99.3333 ± 0.016 kg/m3 and 99.3338 ± 0.016 kg/m3 | mass density (440 K, 7526.8 kPa): 147.61 ± 0.042 kg/m3 and 147.611 ± 0.042 kg/m3 | mass density (440 K, 7535.9 kPa): 147.904 ± 0.022 kg/m3 and 147.903 ± 0.022 kg/m3 | mass density (440 K, 7536 kPa): 147.904 ± 0.022 kg/m3 | mass density (440 K, 7762.5 kPa): 154.944 ± 0.043 kg/m3 | mass density (440 K, 7762.6 kPa): 154.945 ± 0.043 kg/m3 and 154.944 ± 0.043 kg/m3 | mass density (440 K, 9826.6 kPa): 218.701 ± 0.053 kg/m3 and 218.702 ± 0.053 kg/m3 and 218.7 ± 0.053 kg/m3 | mass density (440 K, 9826.7 kPa): 218.702 ± 0.053 kg/m3 and 218.7 ± 0.053 kg/m3 and 218.701 ± 0.053 kg/m3 | mass density (440.01 K, 658.93 kPa): 8.1888 ± 0.0033 kg/m3 | mass density (440.01 K, 658.95 kPa): 8.1894 ± 0.0033 kg/m3 and 8.1895 ± 0.0033 kg/m3 | mass density (440.01 K, 1032.5 kPa): 13.0692 ± 0.0039 kg/m3 | mass density (440.01 K, 1032.8 kPa): 13.0752 ± 0.0039 kg/m3 | mass density (440.01 K, 4613.1 kPa): 72.2397 ± 0.012 kg/m3 and 72.2408 ± 0.012 kg/m3 and 72.2337 ± 0.012 kg/m3 | mass density (440.01 K, 7526.8 kPa): 147.613 ± 0.042 kg/m3 and 147.61 ± 0.042 kg/m3 and 147.611 ± 0.042 kg/m3 | mass density (440.01 K, 7526.9 kPa): 147.613 ± 0.042 kg/m3 and 147.612 ± 0.042 kg/m3 | mass density (460 K, 384.07 kPa): 4.4943 ± 0.0029 kg/m3 [middle of 5 runs] | mass density (460 K, 687.74 kPa): 8.1494 ± 0.0033 kg/m3
